What follows are molecules tested against T1, CRAC channel (Homo sapiens, UniProt Q96D31) (assay: HEK Calcium Influx Assay (FLIPR), inhibition of store-operated Ca2+ entry after thapsigargin store depletion). Conditions: 10 μM compound, HEK293 cells, read-out: % inhib. [@ 10 μM] FLIPR.
T1 construct: endogenous in cells; host or cells: HEK293 (ECACC), untransfected
T1 sequence (Q96D31 whole entry): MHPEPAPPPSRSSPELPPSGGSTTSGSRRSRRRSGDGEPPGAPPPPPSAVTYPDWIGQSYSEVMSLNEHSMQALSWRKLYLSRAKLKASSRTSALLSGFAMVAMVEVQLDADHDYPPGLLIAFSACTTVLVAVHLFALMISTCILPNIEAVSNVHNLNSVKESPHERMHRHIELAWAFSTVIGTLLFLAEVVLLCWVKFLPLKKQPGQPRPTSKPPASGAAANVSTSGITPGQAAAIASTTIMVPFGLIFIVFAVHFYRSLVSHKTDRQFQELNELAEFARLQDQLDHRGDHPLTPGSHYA
Format: cell-based
Protocol: The effect of compounds of the invention on intracellular [Ca^2+] was tested in the HEK293 cell line (ECACC).
HEK293 cells were cultured in DMEM/F12/Glutamax (Gibco) containing 10% FCS (Gibco), and maintained at 37° C., 5% CO2. Cell were split twice a week [3*10^6 (Mon-Thu) and 1*10^6 (Thu-Mon) cells/50 ml medium in 1-175 ZK culture flasks, respectively]. Twenty four hours pre-experiment, cells were seeded on 96 well plates (Poly-D-Lysine 96 well Black/Clear Plate, BD Biocoat REF 356640) at a density of 40,000 cells/well in DMEM/F12 (Gibco) containing 10% FCS (Gibco), and maintained at 37° C., 5% CO2.
Prior to store-depletion, cell culture medium was removed and cells were loaded with the Calcium-sensitive fluorescent dye comprised within the Calcium-4-assay kit (Molecular Devices) in nominally Ca^2+-free HBS buffer (140 mM NaCl, 4 mM KCl, 0.2 mM MgCl2, 11 mM D-glucose, and 10 mM HEPES, pH 7.4) according to manufacturer's instruction for 60 min at 37° C., 5% CO2.
Passive depletion of intracellular Ca^2+-stores was then triggered by employing the SERCA inhibitor thapsigargin (2 μM final) for 10 min in the dark (RT). To prevent immediate Ca^2+-entry via the activated store-operated channels (SOCs), cells were maintained in Ca^2+-free HBS buffer comprising 100 μM EGTA during store-depletion.
Intracellular changes in [Ca^2+] were subsequently monitored with the FLIPR device (Molecular Devices). In brief, baseline imaging post-store depletion was allowed for 1 min before adjusting the extracellular buffer to 3 mM CaCl2. Increases in intracellular [Ca^2+] due to pre-activated SOC channels were monitored for 15 min until intracellular Ca^2+ levels had declined into a steady-state. Finally, compounds were administered, and Ca^2+ signals were recorded for additional 10 min.
Inhibition of endogenous SOC in HEK293 cells was quantified employing the average Ca^2+ signal measured from 9.5-10 min post-administration. Zero percent inhibition (MAX) was defined as the Ca^2+ signal recorded from wells to which DMSO-only had been added instead of compound. Hundred percent inhibition (MIN) was defined as the signal obtained from wells in which cells haven't been treated with TG prior to Ca^2+ addition and to which DMSO-only had been added instead of compound. For routine IC50 determinations of compounds, 8 concentrations of a serial dilution (1:3.16) were tested, starting off from 10 μM. Reliable IC50's could consequently be determined only, if they were at least sub 2.5-3 μM.
`Cc1sc(-c2ncco2)nc1N1CCc2[nH]c(-c3c(F)cccc3Cl)cc2C1` [Example 62, 2-[4-[2-(2-Chloro-6-fluoro-phenyl)-4,5,6,7-tetrahydro-1H-pyrrolo[3,2-c]pyridin-5-yl]-5-methyl-thiazol-2-yl]-oxazole] showed an inhibition at 10 µM of over 70%. Work on `COc1ncccc1-c1cc2c([nH]1)CCN(c1cnc(S(C)(=O)=O)cc1C)C2` [Example 98, 2-(2-Methoxy-pyridin-3-yl)-5-(4-methyl-6-methylsulfonyl-pyridin-3-yl)-4,5,6,7-tetrahydro-1H-pyrrolo[3,2-c]pyridine] yielded an inhibition at 10 µM of over 70%. `Cc1sc(-c2ncco2)nc1N1CCc2[nH]c(-c3c(F)cccc3F)cc2C1` [Example 57, 2-[4-[2-(2,6-Difluoro-phenyl)-4,5,6,7-tetrahydro-1H-pyrrolo[3,2-c]pyridin-5-yl]-5-methyl-thiazol-2-yl]-oxazole] showed an inhibition at 10 µM of over 70%. Molecule `Cc1sc(-c2ncco2)nc1N1CCc2[nH]c(-c3c(F)cccc3F)cc2C1=O` [Example 54, 2-(2,6-Difluoro-phenyl)-5-(5-methyl-2-oxazol-2-yl-thiazol-4-yl)-1,5,6,7-tetrahydro-pyrrolo[3,2-c]pyridin-4-one] has an inhibition at 10 µM of over 70%. `Cc1sccc1N1CCc2[nH]c(-c3c(F)cccc3F)cc2C1` [Example 55, 2-(2,6-Difluoro-phenyl)-5-(2-methyl-thiophen-3-yl)-4,5,6,7-tetrahydro-1H-pyrrolo[3,2-c]pyridine] was tested, and the inhibition at 10 µM was over 70%. `Cc1cc(Cl)ncc1N1CCc2[nH]c(-c3c(F)cccc3Cl)cc2C1=O` [Example 45, 2-(2-Chloro-6-fluoro-phenyl)-5-(6-chloro-4-methyl-pyridin-3-yl)-1,5,6,7-tetrahydro-pyrrolo[3,2-c]pyridin-4-one] showed an inhibition at 10 µM of over 70%. `Cc1sc(C2CC2)nc1N1CCc2[nH]c(-c3c(F)cccc3Cl)cc2C1=O` [Example 52, 2-(2-Chloro-6-fluoro-phenyl)-5-(2-cyclopropyl-5-methyl-thiazol-4-yl)-1,5,6,7-tetrahydro-pyrrolo[3,2-c]pyridin-4-one] gave an inhibition at 10 µM of over 70%. Molecule `O=C1c2cc(-c3c(F)cccc3F)[nH]c2CCN1c1c(F)cccc1F` [Example 46, 2,5-Bis(2,6-difluoro-phenyl)-1,5,6,7-tetrahydro-pyrrolo[3,2-c]pyridin-4-one] has an inhibition at 10 µM of 50 to 70%. `Cc1sc(-c2cccnc2)nc1N1CCc2[nH]c(-c3ccc(Cl)nc3)cc2C1=O` [Example 43, 2-(6-Chloro-pyridin-3-yl)-5-(5-methyl-2-pyridin-3-yl-thiazol-4-yl)-1,5,6,7-tetrahydro-pyrrolo[3,2-c]pyridin-4-one] gave an inhibition at 10 µM of 50 to 70%. `Cc1cc(Cl)ncc1N1CCc2[nH]c(-c3c(F)cccc3F)cc2C1=O` [Example 38, 5-(6-Chloro-4-methyl-pyridin-3-yl)-2-(2,6-difluoro-phenyl)-1,5,6,7-tetrahydro-pyrrolo[3,2-c]pyridin-4-one] gave an inhibition at 10 µM of over 70%. Molecule `Cc1cc(N)ncc1N1CCc2[nH]c(-c3c(F)cccc3F)cc2C1` [Example 95, [5-[2-(2,6-Difluoro-phenyl)-4,5,6,7-tetrahydro-1H-pyrrolo[3,2-c]pyridin-5-yl]-4-methyl-pyridin-2-yl]-amine] has an inhibition at 10 µM of over 70%. Work on `CNC(=O)c1ccc(N2CCc3[nH]c(-c4c(F)cccc4F)cc3C2)c(C)c1` [Example 80, 4-[2-(2,6-Difluoro-phenyl)-4,5,6,7-tetrahydro-1H-pyrrolo[3,2-c]pyridin-5-yl]-N,3-dimethyl-benzamide] yielded an inhibition at 10 µM of over 70%. In the case of `COc1cnc(C(F)(F)F)nc1N1CCc2[nH]c(-c3c(F)cccc3F)cc2C1` [Example 84, 2-(2,6-Difluoro-phenyl)-5-[5-methoxy-2-(trifluoromethyl)-pyrimidin-4-yl]-4,5,6,7-tetrahydro-1H-pyrrolo[3,2-c]pyridine], the inhibition at 10 µM is reported as 50 to 70%. Work on `Cc1sc(-c2ncco2)nc1N1CCc2[nH]c(-c3c(F)cccc3Cl)cc2C1=O` [Example 53, 2-(2-Chloro-6-fluoro-phenyl)-5-(5-methyl-2-oxazol-2-yl-thiazol-4-yl)-1,5,6,7-tetrahydro-pyrrolo[3,2-c]pyridin-4-one] yielded an inhibition at 10 µM of over 70%. With `COc1cc(C#N)ccc1N1CCc2[nH]c(-c3c(F)cccc3Cl)cc2C1=O` [Example 41, 4-[2-(2-Chloro-6-fluoro-phenyl)-4-oxo-1,5,6,7-tetrahydro-pyrrolo[3,2-c]pyridin-5-yl]-3-methoxy-benzonitrile] the inhibition at 10 µM was 50 to 70%. For `Cc1sc(-c2cccnc2)nc1N1CCc2[nH]c(-c3c(F)cccc3Cl)cc2C1` [Example 17, 4-[2-(2-Chloro-6-fluoro-phenyl)-4,5,6,7-tetrahydro-1H-pyrrolo[3,2-c]pyridin-5-yl]-5-methyl-2-pyridin-3-yl-thiazole], the inhibition at 10 µM was over 70%. `Cc1c(F)cncc1N1CCc2[nH]c(-c3c(F)cccc3F)cc2C1` [Example 94, 2-(2,6-Difluoro-phenyl)-5-(5-fluoro-4-methyl-pyridin-3-yl)-4,5,6,7-tetrahydro-1H-pyrrolo[3,2-c]pyridine] was tested, and the inhibition at 10 µM was over 70%. `CCn1nc(N2CCc3[nH]c(-c4c(F)cccc4F)cc3C2)cc1C1(C(F)(F)F)CC1` [Example 125, 2-(2,6-Difluoro-phenyl)-5-[1-ethyl-5-[1-(trifluoromethyl)-cyclopropyl]-1H-pyrazol-3-yl]-4,5,6,7-tetrahydro-1H-pyrrolo[3,2-c]pyridine] gave an inhibition at 10 µM of over 70%. `Cc1sc(-c2cccnc2)nc1N1CCc2[nH]c(-c3c(F)cccc3Cl)cc2C1=O` [Example 42, 2-(2-Chloro-6-fluoro-phenyl)-5-(5-methyl-2-pyridin-3-yl-thiazol-4-yl)-1,5,6,7-tetrahydro-pyrrolo[3,2-c]pyridin-4-one] showed an inhibition at 10 µM of over 70%. With `Cc1sc(C2CC2)nc1N1CCc2[nH]c(-c3c(F)cccc3F)cc2C1=O` [Example 48, 5-(2-Cyclopropyl-5-methyl-thiazol-4-yl)-2-(2,6-difluoro-phenyl)-1,5,6,7-tetrahydro-pyrrolo[3,2-c]pyridin-4-one] the inhibition at 10 µM was over 70%. For `Cc1cc(Cl)ncc1N1CCc2[nH]c(-c3ccc(F)cc3F)cc2C1=O` [Example 44, 5-(6-Chloro-4-methyl-pyridin-3-yl)-2-(2,4-difluoro-phenyl)-1,5,6,7-tetrahydro-pyrrolo[3,2-c]pyridin-4-one], the inhibition at 10 µM was 50 to 70%. With `Cc1sc(-c2cccnc2)nc1N1CCc2[nH]c(-c3c(F)cccc3F)c(CO)c2C1` [Example 85, [2-(2,6-Difluoro-phenyl)-5-(5-methyl-2-pyridin-3-yl-thiazol-4-yl)-4,5,6,7-tetrahydro-1H-pyrrolo[3,2-c]pyridin-3-yl]-methanol] the inhibition at 10 µM was over 70%. `Cc1sc(C2CC2)nc1N1CCc2[nH]c(-c3c(F)cccc3F)cc2C1` [Example 56, 2-Cyclopropyl-4-[2-(2,6-difluoro-phenyl)-4,5,6,7-tetrahydro-1H-pyrrolo[3,2-c]pyridin-5-yl]-5-methyl-thiazole] was tested, and the inhibition at 10 µM was over 70%. `Cc1sc(C2CC2)nc1N1CCc2[nH]c(-c3c(F)cccc3Cl)cc2C1` [Example 61, 4-[2-(2-Chloro-6-fluoro-phenyl)-4,5,6,7-tetrahydro-1H-pyrrolo[3,2-c]pyridin-5-yl]-2-cyclopropyl-5-methyl-thiazole] was tested, and the inhibition at 10 µM was over 70%. Molecule `Cc1ccc(Cl)cc1N1CCc2[nH]c(-c3c(F)cccc3Cl)cc2C1=O` [Example 50, 2-(2-Chloro-6-fluoro-phenyl)-5-(5-chloro-2-methyl-phenyl)-1,5,6,7-tetrahydro-pyrrolo[3,2-c]pyridin-4-one] has an inhibition at 10 µM of 50 to 70%. With `Cc1cc(N2CCc3[nH]c(-c4c(F)cccc4F)cc3C2)n(C)n1` [Example 58, 2-(2,6-Difluoro-phenyl)-5-(2,5-dimethyl-2H-pyrazol-3-yl)-4,5,6,7-tetrahydro-1H-pyrrolo[3,2-c]pyridine] the inhibition at 10 µM was over 70%. `Cc1cc(N2CCc3[nH]c(-c4c(F)cccc4Cl)cc3C2)n(C)n1` [Example 63, 2-(2-Chloro-6-fluoro-phenyl)-5-(2,5-dimethyl-2H-pyrazol-3-yl)-4,5,6,7-tetrahydro-1H-pyrrolo[3,2-c]pyridine] showed an inhibition at 10 µM of over 70%. `O=C1c2cc(-c3c(F)cccc3Cl)[nH]c2CCN1c1c(F)cccc1F` [Example 49, 2-(2-Chloro-6-fluoro-phenyl)-5-(2,6-difluoro-phenyl)-1,5,6,7-tetrahydro-pyrrolo[3,2-c]pyridin-4-one] showed an inhibition at 10 µM of over 70%. With `Cc1cc(S(C)(=O)=O)ncc1N1CCc2[nH]c(-c3snnc3C)cc2C1` [Example 89, 4-Methyl-5-[5-(4-methyl-6-methylsulfonyl-pyridin-3-yl)-4,5,6,7-tetrahydro-1H-pyrrolo[3,2-c]pyridin-2-yl]-[1,2,3]thiadiazole] the inhibition at 10 µM was 50 to 70%.
